Experiments:
[1] = target: glucocorticoid receptor (GR) recombinant ligand binding domain (LBD) (Homo sapiens (Human), UniProt P04150); assay: GR binding fluorescence polarisation (FP) assay; conditions: displacement of fluorescently tagged ligand
Method: Binding of test compounds to the glucocorticoid receptor (GR) is determined using a fluorescence polarisation (FP) assay utilising a recombinant ligand binding domain (LBD) of GR. The test compounds are assessed by their ability to displace a fluorescently tagged ligand and detection of the resulting decrease in fluorescence polarisation.

[2] = tested on: induction of TAT by dexamethasone in HepG2 cells; assay: Hep G2 TAT assay (inhibition of dexamethasone-induced TAT); type: cell-based, human; conditions: challenge of 100 nM dexamethasone, IC50 converted to Ki by Cheng and Prusoff equation

Chain of glucocorticoid receptor (GR) recombinant ligand binding domain (LBD) (P04150 524-758): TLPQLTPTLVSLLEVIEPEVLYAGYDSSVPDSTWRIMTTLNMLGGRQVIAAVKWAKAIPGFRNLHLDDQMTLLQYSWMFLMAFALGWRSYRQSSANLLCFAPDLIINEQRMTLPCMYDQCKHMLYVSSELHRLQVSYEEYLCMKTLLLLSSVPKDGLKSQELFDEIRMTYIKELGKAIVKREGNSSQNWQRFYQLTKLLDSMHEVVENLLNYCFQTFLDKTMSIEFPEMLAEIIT

SMILES | IC50 [1] [nM] | Ki [2] [nM]
Cc1cc2c(cnn2-c2ccc(F)cc2)cc1C1(Cc2ccccc2)CCN(C(=O)c2cncs2)C1 (stereo not shown) [Example 232, (3-benzyl-3-(1-(4-fluorophenyl)-6-methyl-1H-indazol-5-yl)pyrrolidin-1-yl)(thiazol-5-yl)methanone] | 10 | 37
COc1cc2c(cnn2-c2ccc(F)cc2)cc1C1(Cc2ccccc2)CCN(C(=O)c2nccs2)C1 (stereo not shown) [Example 233, (3-benzyl-3-(1-(4-fluorophenyl)-6-methoxy-1H-indazol-5-yl)pyrrolidin-1-yl)(thiazol-2-yl)methanone] | 70 | 52
Cc1cc2c(cnn2-c2ccc(F)cc2)cc1C1(Cc2ccccc2)CCN(C(=O)c2cscn2)C1 (stereo not shown) [Example 235] | 12 | 34
COc1cc2c(cnn2-c2ccc(F)c(C#N)c2)cc1C1(Cc2ccccc2)CCN(S(=O)(=O)c2cnn(C)n2)C1 (stereo not shown) [Example 243, 5-(5-(3-benzyl-1-((2-methyl-2H-1,2,3-triazol-4-yl)sulfonyl)pyrrolidin-3-yl)-6-methoxy-1H-indazol-1-yl)-2-fluorobenzonitrile] | 65 | 38
[2H]C([2H])([2H])n1cc(-n2ncc3cc(C4(Cc5ccccc5)CCN(S(=O)(=O)c5cnn(C)n5)C4)c(C)cc32)cn1 (stereo not shown) [Example 250, 5-(3-benzyl-1-((2-methyl-2H-1,2,3-triazol-4-yl)sulfonyl)pyrrolidin-3-yl)-6-methyl-1-(1-(methyl-d3)-1H-pyrazol-4-yl)-1H-indazole] | 4.1 | 26
COc1nn(C)cc1-n1ncc2cc(C3(Cc4ccccc4)CCN(S(=O)(=O)c4cnn(C)n4)C3)c(C)cc21 (stereo not shown) [Example 251, 5-(3-benzyl-1-((2-methyl-2H-1,2,3-triazol-4-yl)sulfonyl)pyrrolidin-3-yl)-1-(3-methoxy-1-methyl-1H-pyrazol-4-yl)-6-methyl-1H-indazole] | 27 | 180
Cc1cc2c(cnn2-c2cnn(C3CC3)c2)cc1C1(Cc2ccccc2)CCN(S(=O)(=O)c2cnn(C)n2)C1 (stereo not shown) [Example 252, 5-(3-benzyl-1-((2-methyl-2H-1,2,3-triazol-4-yl)sulfonyl)pyrrolidin-3-yl)-1-(1-cyclopropyl-1H-pyrazol-4-yl)-6-methyl-1H-indazole] | 29 | 94
Cc1cc2c(cnn2-c2cnn(C)c2C)cc1C1(Cc2ccccc2)CCN(S(=O)(=O)c2cnn(C)n2)C1 (stereo not shown) [Example 253, 5-(3-benzyl-1-((2-methyl-2H-1,2,3-triazol-4-yl)sulfonyl)pyrrolidin-3-yl)-1-(1,5-dimethyl-1H-pyrazol-4-yl)-6-methyl-1H-indazole] | 24 | 240
Cc1cc2c(cnn2-c2cnn(C(F)(F)F)c2)cc1C1(Cc2ccccc2)CCN(S(=O)(=O)c2cnn(C)n2)C1 (stereo not shown) [Example 254, 5-(3-benzyl-1-((2-methyl-2H-1,2,3-triazol-4-yl)sulfonyl)pyrrolidin-3-yl)-6-methyl-1-(1-(trifluoromethyl)-1H-pyrazol-4-yl)-1H-indazole] | 87 | 44
Cc1cc2c(cnn2-c2cnn(C(F)F)c2)cc1C1(Cc2ccccc2)CCN(S(=O)(=O)c2cnn(C)n2)C1 (stereo not shown) [Example 255, 5-(3-benzyl-1-((2-methyl-2H-1,2,3-triazol-4-yl)sulfonyl)pyrrolidin-3-yl)-1-(1-(difluoromethyl)-1H-pyrazol-4-yl)-6-methyl-1H-indazole] | 27 | 44

Further lines, with some results ahead:

IC50 [1] [nM] | SMILES | Ki [2] [nM]
4.8 | Cc1cc2c(cnn2-c2cc(C)c(=O)n(C)c2)cc1C1(Cc2ccccc2)CCN(S(=O)(=O)c2cnn(C)n2)C1 (stereo not shown) [Example 237, 5-(5-(3-benzyl-1-((2-methyl-2H-1,2,3-triazol-4-yl)sulfonyl)pyrrolidin-3-yl)-6-methyl-1H-indazol-1-yl)-1,3-dimethylpyridin-2(1H)-one] | 22
28 | Cc1cc2c(cnn2-c2ccc(F)c(C#N)c2)cc1C1(Cc2ccccc2)CCN(S(=O)(=O)c2cnn(C)n2)C1 (stereo not shown) [Example 239, 5-(5-(3-benzyl-1-((2-methyl-2H-1,2,3-triazol-4-yl)sulfonyl)pyrrolidin-3-yl)-6-methyl-1H-indazol-1-yl)-2-fluorobenzonitrile] | 36
18 | Cc1cc2c(cnn2-c2ccc(F)c(CO)c2)cc1C1(Cc2ccccc2)CCN(S(=O)(=O)c2cnn(C)n2)C1 (stereo not shown) [Example 242, (5-(5-(3-benzyl-1-((2-methyl-2H-1,2,3-triazol-4-yl)sulfonyl)pyrrolidin-3-yl)-6-methyl-1H-indazol-1-yl)-2-fluorophenyl)methanol] | 44
6.3 | Cc1cc2c(cnn2-c2cc(F)c(=O)n(C)c2)cc1C1(Cc2ccccc2)CCN(S(=O)(=O)c2cnn(C)n2)C1 (stereo not shown) [Example 246, 5-(5-(3-benzyl-1-((2-methyl-2H-1,2,3-triazol-4-yl)sulfonyl)pyrrolidin-3-yl)-6-methyl-1H-indazol-1-yl)-3-fluoro-1-methylpyridin-2(1H)-one] | 49
55 | Cc1cc2c(cnn2-c2ccc(=O)n(C(F)F)c2)cc1C1(Cc2ccccc2)CCN(S(=O)(=O)c2cnn(C)n2)C1 (stereo not shown) [Example 247, 5-(5-(3-benzyl-1-((2-methyl-2H-1,2,3-triazol-4-yl)sulfonyl)pyrrolidin-3-yl)-6-methyl-1H-indazol-1-yl)-1-(difluoromethyl)pyridin-2(1H)-one] | 240
55 | Cc1cc2c(cnn2-c2cc(Cl)c(=O)n(C)c2)cc1C1(Cc2ccccc2)CCN(S(=O)(=O)c2cnn(C)n2)C1 (stereo not shown) [Example 248, 5-(5-(3-benzyl-1-((2-methyl-2H-1,2,3-triazol-4-yl)sulfonyl)pyrrolidin-3-yl)-6-methyl-1H-indazol-1-yl)-3-chloro-1-methylpyridin-2(1H)-one] | 260
4.8 | Cc1cc2c(cnn2-c2cnn(C)c2)cc1C1(Cc2ccccc2)CCN(S(=O)(=O)c2cnn(C)n2)C1 (stereo not shown) [Example 249, 5-(3-benzyl-1-((2-methyl-2H-1,2,3-triazol-4-yl)sulfonyl)pyrrolidin-3-yl)-6-methyl-1-(1-methyl-1H-pyrazol-4-yl)-1H-indazole] | 39
52 | Cc1cc2c(cnn2-c2cn(C)nc2C)cc1C1(Cc2ccccc2)CCN(S(=O)(=O)c2cnn(C)n2)C1 (stereo not shown) [Example 257, 5-(3-benzyl-1-((2-methyl-2H-1,2,3-triazol-4-yl)sulfonyl)pyrrolidin-3-yl)-1-(1,3-dimethyl-1H-pyrazol-4-yl)-6-methyl-1H-indazole] | 220
31 | CCn1cc(-n2ncc3cc(C4(Cc5ccccc5)CCN(S(=O)(=O)c5cnn(C)n5)C4)c(C)cc32)cn1 (stereo not shown) [Example 258, 5-(3-benzyl-1-((2-methyl-2H-1,2,3-triazol-4-yl)sulfonyl)pyrrolidin-3-yl)-1-(1-ethyl-1H-pyrazol-4-yl)-6-methyl-1H-indazole] | 76
180 | Cc1cc2c(cnn2-c2ccn(C)n2)cc1C1(Cc2ccccc2)CCN(S(=O)(=O)c2cnn(C)n2)C1 (stereo not shown) [Example 259, 5-(3-benzyl-1-((2-methyl-2H-1,2,3-triazol-4-yl)sulfonyl)pyrrolidin-3-yl)-6-methyl-1-(1-methyl-1H-pyrazol-3-yl)-1H-indazole] | 540

— patent publication US11787780B2 (CORCEPT THERAPEUTICS INCORPORATED, priority 2020, dated 2023)
